US10928397B2, “Methods involving MenaINV in screening for inhibitors of cancer invasion and metastasis” (MASSACHUSETTS INSTITUTE OF TECHNOLOGY, priority 2012, dated 2021)
“Also recorded” adds a separate entry of the source.

Tests used:
MDA-MB231 cells [1] = assay: In vitro invasion into collagen I gels; format: cell-based; details: 0.25 or 0.5 nM EGF
[2] = test system: xenograft tumors of MTLn3 cells; assay: In vivo invasion assay (needle collection from xenograft tumors); parameters: species or system mouse
Procedure: An in vivo invasion assay was employed to determine the effect of decreased PTP1b activity on tumor cell chemotaxis. To mimic the in vitro invasion experiments, 50 μM PTP1b inhibitor was added to needles with 10% matrigel and varying concentrations of EGF, the needles inserted into xenograft tumors of MTLn3 cells expressing either GFP or GFP-Mena^INV and cells allowed to crawl into the needle during a 4 h period. Similar to the results obtained in vitro, addition of PTP1b inhibitor to needles used to collect cells had no effect on the number of cells ectopically expressing Mena^INV collected (FIG. 2G). However, PTP1b inhibition increased the sensitivity of control cells 5-fold, decreasing the concentration of EGF required for chemotaxis into the needles from 25 nM to 5 nM. In this assay the discrepancy between expression of Mena^INV and inhibition of PTP1b may be due to the time lag required for inhibitor efficacy.
However, viability of the mouse under anesthesia precludes collection of cells for longer periods than 4 h, therefore this effect is difficult to quantify.

MTLn3 cells [3] = assay: PI(4,5)P2 hydrolysis, mCherry-tagged PH-domain biosensor (PLCγ activity); format: cell-based; details: GFP-control MTLn3, 10 μM pre-incubation, 0.5 nM EGF, 3 min post-EGF, versus DMSO
Procedure: (§1) FIG. 9A-9C: PTP1b inhibition increases EGFR pathway activation. MDA-MB231 cells expressing GFP-control or GFPMena^INV were serum starved for 4 h and stimulated with 0.25 nM EGF in the presence or absence of 10 μM PTP1b (30 min preincubation). Phosphorylation of EGFR on Y1173 was measured using semi-quantitative Western blotting (A, B) of quadruplicate lysates. […] MTLn3 cells were transiently transfected with a mCherry-tagged PHdomain biosensor targeting PI(4,5)P2, starved in L15 media, pre-incubated with 10 μM PTP1bi and then stimulated with 0.5 nM EGF.

MTLn3 cells [4] = assay: EGF-stimulated lamellipodial (membrane) protrusion in MTLn3 cells; format: cell-based
Procedure: (§2) FIG. 2A-2G. Inhibition of PTP1b phenocopies expression of Mena^INV. (A) MDA-MB231 cells were serum starved for 4 h with addition of 10 μM PTP1b inhibitor (EMD Calbiochem) for the time indicated. Cells were then stimulated with 0.5 nM EGF and lamellipodial protrusion was measured 8 min post-stimulation. […] (G) Inhibition of PTP1b in vivo shifts the sensitivity of GFP-Control MTLn3 xenografted cells to 5 nM (a 5× increase in sensitivity). *p<0.05 and **p<0.01 by ANOVA and Tukey post-test.
(§3) FIG. 8A-8D: The activity of SHIP2 is not required for early stages of Mena^INV-induced lamellipodial protrusion. MDA-MB231 (A,B) and MTLn3 (C,D) cells were incubated for 4 h with 10 μM AS1949490 in serum-free medium. Cells were stimulated with 0.25 nM (A,B) or 0.5 nM (C,D) EGF and membrane protrusion was recorded 8 min.
What could account for the phenotypes associated with inclusion of the INV exon of Mena, that include: increased activation of EGFR and downstream EGFR-mediated, motility-specific signaling pathways, increased cell invasion, and decreased efficacy of tyrosine kinase inhibition? One route to aberrant signal amplification is dysregulation of control nodes within the protein network, such as phosphatases, that could lead to prolonged or amplified phosphorylation states. Identification of potential Mena and Mena^INV interacting partners that might affect phosphatase activity can shed light on this. Attempts were made at identification of Mena isoforms-specific interacting partners via mass spectrometric analysis. Several unsuccessful attempts to purify Mena interacting partners through a co-immunprecipitation and the mass spectrometric approach resulted. A bioinformatics screening approach was then used. A list of 38 human phosphatases was queried for potential Ena/VASP interaction motifs, with the hypothesis that an interaction between Mena^INV and a phosphatase important for attenuating growth factor responses could lead to increased signaling upon growth factor stimulation. […]

MDA-MB231 cells [5] = assay: EGF-stimulated lamellipodial (membrane) protrusion in MDA-MB231 cells; format: cell-based; details: for lamellipodial protrusion 8 min post-stimulation: 0.5 nM EGF
Procedure: as §2
as §3, with “min. […]” for “min.”
In contrast, inhibition of PTP1b increased lamellipodial protrusion in MDA-MB231-GFP control cells in a time dependent manner in response to 0.5 nM EGF.

[6] = test system: EGFR Y1173 phosphorylation in MDA-MB231 cells; assay: EGFR Y1173 phosphorylation on PTP1b inhibition, semi-quantitative Western blotting; format: cell-based; details: 0.25 nM EGF, 10 μM, 30 min preincubation
Procedure: as §1

mammary carcinoma cells = assay: In vivo invasion of mammary carcinoma cells under Erlotinib
cells expressing MenaINV = assay: Membrane protrusion after 1 nM EGF with increasing doses of Erlotinib; format: cell-based
Procedure: FIG. 6A-6D: Cells expressing MenaINV are resistant to EGFR targeted kinase inhibitors. [A] […] Data was combined to generate novel hypothesis regarding clinically-relevant treatment regimes for invasive breast cancer. […]. Membrane protrusion was quantified 8 min post-EGF/drug addition. *p<0.05, **p<0.01, ***p<0.001. […]. Cells were serum starved and then stimulated with EGF and drug for 3 min. Cells were lysed and the level of EGFR-pY1173 was determined by semi-quantitative Western Blot.
. To test this hypothesis, serum-starved cells were treated with 1.0 nM EGF and increasing doses of DMSO (carrier control) or Erlotinib and measured EGFR phosphorylation at 3 min post-stimulation (FIG. 6B). […]. […] Further, electron microscopy was performed using ultra-small gold particles to examine receptor distribution along the cell membrane to determine if increased clustering of the receptor might affect drug binding or signal propagation. However, no significant difference was found in receptor clustering in the analysis (FIG. 7).

MET [7] = assay: HGF-stimulated protrusion assay with MET inhibitor; format: cell-based; details: +5 ng/ml HGF
Procedure: FIG. 11: Cell protrusion assays were performed in which starved carcinoma cells expressing GFP, GFP-Mena or GFP-Mena^INV were stimulated with different concentrations of hepatocyte growth factor (HGF) (analogously as done with EGF stimulation of EGFR) followed by a measurement of cell protrusion several minutes later. The HGF concentrations (x-axis) are nM and the Y-axis is increase in cell size (a reflection of protrusion) compared to unstimulated cells.

MET [8] = assay: MET kinase activity in cells with MET inhibitor; format: cell-based

## CCc1oc2cc(S(=O)(=O)Nc3ccc(S(=O)(=O)Nc4nccs4)cc3)ccc2c1C(=O)c1cc(Br)c(O)c(Br)c1 [PTP1b inhibitor]
MDA-MB231 cells [1]; MDA-MB231-GFP and -GFP-Mena
  invasion into collagen I gels: increased
MDA-MB231 cells [1]; cells expressing Mena^INV
  invasion into collagen I gels: no significant effect
[2]; GFP-control MTLn3 xenograft, 50 μM inhibitor in needles, 4 h
  increase in sensitivity of control cells to EGF in vivo: 5 fold
[2]; GFP-control MTLn3 xenograft, 50 μM inhibitor, 25 nM without inhibitor
  concentration of EGF required for chemotaxis into the needles with inhibitor: 5 nM
[2]; MTLn3 cells ectopically expressing Mena^INV, 50 μM inhibitor
  number of cells collected into needles: had no effect
MTLn3 cells [3]
  PI(4,5)P2 hydrolysis (PLCγ activity): increased PI(4,5)P2 hydrolysis
MTLn3 cells [3]; listed as PTP1bi
  PI(4,5)P2 hydrolysis (PLCγ activity): PLCγ activity is greater
MTLn3 cells [4]; unmodified MTLn3 cells, EGF (0.5 nM, 5 nM elsewhere in the source)
  membrane protrusion (magnitude and kinetics): increased the magnitude and kinetics of membrane protrusion; also recorded: significantly enhanced
MDA-MB231 cells [5]; GFP-control cells, 10 μM, 30 min pre-incubation
  lamellipodial protrusion 8 min post-stimulation: complete phenocopy of Mena^INV-dependent responses; also recorded: significant increase in membrane protrusion
MDA-MB231 cells [5]; MDA-MB231-GFP control cells, 30 min pre-incubation
  kinetics of protrusion: increased the kinetics of protrusion
MDA-MB231 cells [5]; MDA-MB231-GFP-Mena and GFP control cells, 0.25 nM EGF
  membrane protrusion: increased membrane protrusion; also recorded: protrusion was increased
MDA-MB231 cells [5]; MDA-MB231-GFP-Mena^INV cells
  kinetics of protrusion: without affecting the dynamics
MDA-MB231 cells [5]; MDA-MB231-GFP-Mena^INV cells, 0.25 nM EGF
  membrane protrusion: no further increase was measured
MDA-MB231 cells [5]; cells expressing Mena^INV, 0.125 nM EGF (data not shown)
  membrane protrusion: does not increase membrane protrusion
MDA-MB231 cells [5]; cells expressing Mena^INV, 10 μM, 30 min pre-incubation
  lamellipodial protrusion 8 min post-stimulation: had no effect
[6]; GFP control cells
  EGFR Y1173 phosphorylation: increases EGFR phosphorylation on Y1173; also recorded: increased EGFR Y1173 phosphorylation
[6]; GFP control cells, listed as PTP1bi
  EGFR Y1173 phosphorylation: increased EGFR Y1173 phosphorylation
[6]; cells expressing Mena^INV
  EGFR Y1173 phosphorylation: no additional affect

## C#Cc1cccc(Nc2ncnc3cc(OCCOC)c(OCCOC)cc23)c1 [Erlotinib]
Mammary carcinoma cells; GFP-expressing mammary carcinoma cells
  in vivo invasion: abrogates in vivo invasion
Mammary carcinoma cells; cells that express Mena^INV
  in vivo invasion: does not fully block invasion
Cells expressing MenaINV; 1 nM EGF, 8 min post-EGF/drug addition
  drug required to decrease lamellipodial protrusion, Mena^INV cells compared to control GFP or Mena cells: ten-fold more Erlotinib was required; also recorded: Significantly higher doses of Erlotinib (Tarceva) are required
Cells expressing MenaINV; across cell lines (FIG. 6D)
  efficacy after normalizing protrusion to the no-drug response of each cell line: roughly equivalent; also recorded: a common response across cell lines

## C[C@H](NC(=O)c1sccc1OCc1ccc(Cl)cc1)c1ccccc1 [AS1949490]
MTLn3 cells [4]; MTLn3-GFP-Mena^INV, 10 μM for 4 h, 0.5 nM EGF
  membrane protrusion at 8 min post-EGF stimulation: reduced the protrusion response; also recorded: decreased membrane protrusion to GFPcontrol levels
MTLn3 cells [4]; MTLn3-GFP-Mena^INV, 10 μM, 0.5 nM EGF, up to 3 min post-stimulation
  initial protrusion response (kinetics): still demonstrated the fast initial protrusion response
MDA-MB231 cells [5]; MDA-MB231-GFP-Mena^INV, 10 μM for 4 h, 0.25 nM EGF
  membrane protrusion at 8 min post-EGF stimulation: reduced the protrusion response; also recorded: decreased membrane protrusion to GFPcontrol levels
MDA-MB231 cells [5]; MDA-MB231-GFP-Mena^INV, 10 μM, 0.25 nM EGF, up to 3 min post-stimulation
  initial protrusion response (kinetics): still demonstrated the fast initial protrusion response

## Cc1[nH]c(/C=C2\C(=O)Nc3ccc(S(=O)(=O)N(C)c4cccc(Cl)c4)cc32)c(C)c1C(=O)N1CCN(C)CC1 [SU11274]
MET [7]
  response of Mena^INV expressing cells in protrusion assay: resistant
MET [8]
  response of Mena^INV expressing cells, MET kinase activity: resistant
